# Data reported in ChEMBL document CHEMBL4831516, “Development of Membrane-Active Honokiol/Magnolol Amphiphiles as Potent Antibacterial Agents against Methicillin-Resistant Staphylococcus aureus (MRSA)” (J Med Chem, 2021).
# How the values were obtained:
# Staphylococcus aureus [1] = experiment: Antibacterial activity against Staphylococcus aureus ATCC29213 assessed as inhibition of visible growth incubated for 16 to 18 hrs by CLSI method; format: functional; conditions: time 16-18 hrs, read-out: MIC100
# Staphylococcus aureus [2] = experiment: Antibacterial activity against methicillin-resistant Staphylococcus aureus clinical isolate M-20 assessed as inhibition of visible growth incubated for 16 to 18 hrs by CLSI method; format: functional; conditions: time 16-18 hrs, read-out: MIC100
# Staphylococcus aureus [3] = experiment: Antibacterial activity against methicillin-resistant Staphylococcus aureus clinical isolate M-19 assessed as inhibition of visible growth incubated for 16 to 18 hrs by CLSI method; format: functional; conditions: time 16-18 hrs, read-out: MIC100
# Staphylococcus aureus [4] = experiment: Antibacterial activity against methicillin-resistant Staphylococcus aureus clinical isolate M-15 assessed as inhibition of visible growth incubated for 16 to 18 hrs by CLSI method; format: functional; conditions: time 16-18 hrs, read-out: MIC100
# Staphylococcus aureus [5] = experiment: Antibacterial activity against methicillin-resistant Staphylococcus aureus clinical isolate M-16 assessed as inhibition of visible growth incubated for 16 to 18 hrs by CLSI method; format: functional; conditions: time 16-18 hrs, read-out: MIC100
# Enterococcus faecalis = experiment: Antibacterial activity against Enterococcus faecalis ATCC29212 assessed as inhibition of visible growth incubated for 16 to 18 hrs by CLSI method; format: functional; conditions: time 16-18 hrs, read-out: MIC100
# Staphylococcus aureus [6] = experiment: Antibacterial activity against methicillin-resistant Staphylococcus aureus clinical isolate M-12 assessed as inhibition of visible growth incubated for 16 to 18 hrs by CLSI method; format: functional; conditions: time 16-18 hrs, read-out: MIC100
# Escherichia coli = experiment: Antibacterial activity against Escherichia coli ATCC25922 assessed as inhibition of visible growth incubated for 16 to 18 hrs by CLSI method; format: functional; conditions: time 16-18 hrs, read-out: MIC100
# Salmonella enterica [7] = experiment: Antibacterial activity against Salmonella enterica 349812 assessed as inhibition of visible growth incubated for 16 to 18 hrs by CLSI method; format: functional; conditions: time 16-18 hrs, read-out: MIC100
# Staphylococcus aureus [8] = experiment: Antibacterial activity against methicillin-resistant Staphylococcus aureus clinical isolate M-17 assessed as inhibition of visible growth incubated for 16 to 18 hrs by CLSI method; format: functional; conditions: time 16-18 hrs, read-out: MIC100
# Staphylococcus aureus [9] = experiment: Antibacterial activity against methicillin-resistant Staphylococcus aureus clinical isolate M-14 assessed as inhibition of visible growth incubated for 16 to 18 hrs by CLSI method; format: functional; conditions: time 16-18 hrs, read-out: MIC100
# [10] = tested on: Stenotrophomonas maltophilia; experiment: Antibacterial activity against Stenotrophomonas maltophilia assessed as inhibition of visible growth incubated for 16 to 18 hrs by CLSI method; format: functional; conditions: time 16-18 hrs, read-out: MIC100
# [11] = Selectivity index, HC50 for hemolytic activity in sheep RBC to MIC for antibacterial activity against Staphylococcus aureus ATCC29213; format: toxicity; conditions: sheep red blood cells (erythrocytes), read-out: Selectivity Index
# Bacillus subtilis = experiment: Antibacterial activity against Bacillus subtilis assessed as inhibition of visible growth incubated for 16 to 18 hrs by CLSI method; format: functional; conditions: time 16-18 hrs, read-out: MIC100
# Staphylococcus aureus [12] = experiment: Antibacterial activity against methicillin-resistant Staphylococcus aureus clinical isolate M-18 assessed as inhibition of visible growth incubated for 16 to 18 hrs by CLSI method; format: functional; conditions: time 16-18 hrs, read-out: MIC100
# Micrococcus luteus = experiment: Antibacterial activity against Micrococcus luteus assessed as inhibition of visible growth incubated for 16 to 18 hrs by CLSI method; format: functional; conditions: time 16-18 hrs, read-out: MIC100
# [13] = Hemolytic activity in sheep RBC assessed as hemolysis incubated for 1 hr; format: ADME, cell-based, Ovis aries, Erythrocyte; conditions: sheep red blood cells (erythrocytes)
# Staphylococcus aureus [14] = experiment: Antibacterial activity against methicillin-resistant Staphylococcus aureus clinical isolate M-13 assessed as inhibition of visible growth incubated for 16 to 18 hrs by CLSI method; format: functional; conditions: time 16-18 hrs, read-out: MIC100
# Staphylococcus aureus [15] = experiment: Antibacterial activity against methicillin-resistant Staphylococcus aureus clinical isolate M-11 assessed as inhibition of visible growth incubated for 16 to 18 hrs by CLSI method; format: functional; conditions: time 16-18 hrs, read-out: MIC100
# Salmonella enterica [16] = experiment: Antibacterial activity against Salmonella enterica 8389 assessed as inhibition of visible growth incubated for 16 to 18 hrs by CLSI method; format: functional; conditions: time 16-18 hrs, read-out: MIC100
SMILES,MIC (Staphylococcus aureus [1]) [µg/mL],MIC (Staphylococcus aureus [2]) [µg/mL],MIC (Staphylococcus aureus [3]) [µg/mL],MIC (Staphylococcus aureus [4]) [µg/mL],MIC (Staphylococcus aureus [5]) [µg/mL],MIC (Enterococcus faecalis) [µg/mL],MIC (Staphylococcus aureus [6]) [µg/mL],MIC (Escherichia coli) [µg/mL],MIC (Salmonella enterica [7]) [µg/mL],MIC (Staphylococcus aureus [8]) [µg/mL],MIC (Staphylococcus aureus [9]) [µg/mL],MIC [10] [µg/mL],selectivity ratio [11],MIC (Bacillus subtilis) [µg/mL],MIC (Staphylococcus aureus [12]) [µg/mL],MIC (Micrococcus luteus) [µg/mL],HC50 at 1 h [13] [µg/mL],MIC (Staphylococcus aureus [14]) [µg/mL],MIC (Staphylococcus aureus [15]) [µg/mL],MIC (Salmonella enterica [16]) [µg/mL]
C=CCc1ccc(O)c(-c2cc(CC=C)ccc2OCCCC[N+](C)(C)CC(=O)NCCCCC)c1.[Br-],2,4,4,4,4,8,4,8,32,4,4,32,322,2,4,4,643,4,4,32
C=CCc1ccc(O)c(-c2cc(CC=C)ccc2OCC[N+](C)(C)CC(=O)NCCCCC)c1.[Br-],8,8,8,8,8,16,16,32,64,8,8,64,80.7,4,8,4,645,8,16,64
C=CCc1ccc(O)c(-c2cc(CC=C)ccc2OCC[N+](C)(C)CC(=O)NCCCC)c1.[Br-],4,4,4,4,4,8,8,32,32,4,4,32,143,2,4,4,573,8,8,32
C=CCc1ccc(OCCCC[N+](C)(C)CC(=O)N(CCCC)CCCC)c(-c2ccc(OCCCC[N+](C)(C)CC(=O)N(CCCC)CCCC)c(CC=C)c2)c1.[Br-].[Br-],2,8,4,8,16,4,8,8,8,8,8,16,316,2,8,4,633,8,4,16
C=CCc1ccc(O)c(-c2cc(CC=C)ccc2OCCCC[N+](C)(C)CC(=O)NCCCC)c1.[Br-],2,1,1,1,1,2,2,8,16,2,2,8,277,0.5,1,0.5,555,2,4,16
C=CCc1ccc(OCC[N+](C)(C)CC(=O)NCCCCCC)c(-c2ccc(OCC[N+](C)(C)CC(=O)NCCCCCC)c(CC=C)c2)c1.[Br-].[Br-],8,4,8,8,16,4,8,32,32,4,8,32,117,4,8,8,934,8,8,32
C=CCc1ccc(OCC[N+](C)(C)CC(=O)N(CCCC)CCCC)c(-c2ccc(OCC[N+](C)(C)CC(=O)N(CCCC)CCCC)c(CC=C)c2)c1.[Br-].[Br-],4,8,8,2,2,2,4,16,32,2,4,32,> 320,4,8,4,> 1280,4,4,32
C=CCc1ccc(OCCC[N+](C)(C)CC(=O)NCCCCC)c(-c2ccc(OCCC[N+](C)(C)CC(=O)NCCCCC)c(CC=C)c2)c1.[Br-].[Br-],2,4,2,2,2,4,2,16,8,2,4,16,546,8,2,4,1090,4,4,8
